Laboratory results published in US20170128468A1, “PHOSPHATIDYLGLYCEROL AS AN ANTI-INFLAMMATORY” (Agusta University Research Institute, Inc., priority 2015, published 2017).

Columns and labels:
[1] = tested on: NF-κB phosphorylation/activation in RAW264.7 cells; experiment: Western analysis of NF-κB phosphorylation/activation in RAW264.7 cells stimulated with Pam3CSK4; format: cell-based, mouse; conditions: 10 minutes, FIG. 9
Procedure: Membranes containing transferred proteins were blocked with 5% non-fat dry milk for at least 30 minutes before incubating with the appropriate primary antibodies, overnight, followed by washing and incubating with secondary antibodies for 1 h at room temperature. Immunoreactivity was visualized using infrared imaging on an Odyssey imaging system (LI-COR Biosciences, Lincoln, Nebr.).

[2] = tested on: S100A9-induced inflammatory mediator expression in RAW 264.7 macrophage cell line; experiment: qRT-PCR of inflammatory mediator mRNA in RAW 264.7 cells treated with recombinant S100A9; format: cell-based, mouse; conditions: 2 h, FIGS. 6A-6D
Procedure: (§1) Primary cultures of mouse epidermal keratinocytes were prepared from ICR strain CD-1 outbred neonatal mice 1-3 days of age as described in detail in (Bollag W B, et al., J Invest Derm 100 240-246 (1993); Griner R, et al., J Biol Chem, 274 4663-4670 (1999)). All procedures were approved by the Institutional Animal Care and Use Committee. RAW264.7 cells, a mouse macrophage-derived cell line, were kindly provided by Drs. Qing Zhong and Carlos Isales (Augusta University) and were cultured in DMEM containing 10% fetal bovine serum and 1% penicillin and streptomycin.
(§2) Keratinocytes were treated with or without TPA or a synthetic triacylated lipoprotein (Pam3CSK4), a TLR1/TLR2 agonist, or recombinant S100A9 (R&D Systems) or HSPB4 (MyBiosoruce) as indicated, for 2 hours in the presence and absence of different concentrations of soy PG or dioleoylphosphatidylglycerol (DOPG). Cells were harvested and RNA isolated using PerfectPure RNA tissue kits (5 PRIME, Inc, Gaithersburg, Md., USA) as per the manufacturer's protocol. Following verification of RNA integrity using a Nanodrop instrument (NanoDrop Technologies, Wilmington, Del.), RNA was reverse-transcribed to cDNA with iScript cDNA synthesis kits (Bio-Rad Laboratories, Hercules, Calif., USA) and analyzed by real-time PCR using Taqman primer/probe sets from Applied Biosystems (Life Technologies, Grand Island, N.Y.). […]

[3] = tested on: TNFα protein secretion by RAW264.7 cells; experiment: TNFα protein secretion by ELISA in RAW264.7 culture supernatants; format: cell-based, mouse; conditions: 2 h; for TNFα protein secretion: DAMP alone (S100A9 2 μg/mL; HSPB4 0.1 or 1 μg/mL), FIGS. 8A-8B
Procedure: Cells were treated with recombinant S100A9 or recombinant HSPB4 as indicated and media collected. TNFα levels were determined in the supernatant using an ELISA kit (BD Biosciences) according to the manufacturer's instructions.
Mouse TNFα ELISA kits from BD Biosciences (San Jose, Calif.) were used. RAW264.7 cells were treated with or without recombinant S100A9 or HSPB4 in the presence and absence of DOPG for 2 hours. Cell culture supernatants were collected and stored at −80° C. and subjected to a single freeze-thaw cycle. The ELISA assay was performed according to the manufacturer's instructions with the optical density detected in each sample within 30 minutes, at a wavelength of 450 nm and corrected at 570 nm.

[4] = tested on: Pam3CSK4-induced inflammatory mediator expression in macrophage cell line RAW 264.7; experiment: qRT-PCR of inflammatory mediator mRNA in RAW 264.7 macrophage cell line treated with Pam3CSK4; format: cell-based, mouse; conditions: 2 h
Procedure: as §1
(§3) Keratinocytes were treated with or without TPA or a synthetic triacylated lipoprotein (Pam3CSK4), a TLR1/TLR2 agonist, or recombinant S100A9 (R&D Systems) or HSPB4 (MyBiosoruce) as indicated, for 2 hours in the presence and absence of different concentrations of soy PG or dioleoylphosphatidylglycerol (DOPG). Cells were harvested and RNA isolated using PerfectPure RNA tissue kits (5 PRIME, Inc, Gaithersburg, Md., USA) as per the manufacturer's protocol. Following verification of RNA integrity using a Nanodrop instrument (NanoDrop Technologies, Wilmington, Del.), RNA was reverse-transcribed to cDNA with iScript cDNA synthesis kits (Bio-Rad Laboratories, Hercules, Calif., USA) and analyzed by real-time PCR using Taqman primer/probe sets from Applied Biosystems (Life Technologies, Grand Island, N.Y.). Reactions were performed using Fast Reagent PCR Master Mix (Applied Biosystems) and a StepOnePlus Real-Time PCR System (Applied Biosystems) as instructed by the manufacturer. Expression of genes of interest was determined using the delta-delta Ct method normalized to the expression of GAPDH as the endogenous housekeeping gene and expressed relative to the appropriate control group.

[5] = tested on: Pam3CSK4-induced inflammatory mediator expression in keratinocytes; experiment: qRT-PCR of inflammatory mediator mRNA in keratinocytes treated with Pam3CSK4 (TLR1/2 agonist); format: cell-based, mouse
Procedure: as §1, §2

[6] = tested on: HSPB4-induced inflammatory mediator expression in RAW cell line; experiment: qRT-PCR of inflammatory mediator mRNA in RAW 264.7 cells treated with recombinant HSPB4; format: cell-based, mouse; conditions: 2 h, FIGS. 7A-7D
Procedure: as §1, §2

TPA-induced ear edema = experiment: Contact irritant (TPA) ear edema mouse in vivo model
Procedure: Experiments were performed as described in (27). Briefly, the ears of three to five male ICR CD-1 outbred mice [25-30 g; 5-6 weeks of age from Harlan Laboratories (Indianapolis, Ind.)] were treated with acetone or TPA (0.03% in acetone), and at 1 h and 4 h after TPA, the appropriate vehicle or the treatment in vehicle was applied to each ear. Ear thickness was measured using a caliper both before and at approximately 18-20 h after TPA treatment prior to sacrifice. After sacrifice, a circular ear punch biopsy (4 mm^2) was taken, weighed, and fixed in formalin. Histological evaluation included H&E staining and immunohistochemical staining for CD45 to quantify the number of infiltrating immune cells (see below).
(§4) Sections (10 μm) were cut from formalin-fixed paraffin-embedded ear biopsies and deparaffinized and rehydrated as described in (28). […] Multiple random sections (4 to 8 per mouse separately from the left and right ear) were counted by two independent observers in a blinded fashion, counts averaged to determine a value for each mouse ear and values statistically analyzed as described below.
Experiments were performed as described in Clark S P; Bollag W B; Westlund K N; Ma F; Falls G; Xie D; Johnson M; Isales C M; Bhattacharyya M H: Pine oil effects on chemical and thermal injury in mice and cultured mouse dorsal root ganglion neurons. […] Ear thickness was measured using a caliper both before and at approximately 18-20 h after TPA treatment prior to sacrifice. […] Histological evaluation included H&E staining and immunohistochemical staining for CD45 to quantify the number of infiltrating immune cells (see below).
as §4, with “(Voss K E et al., Arch. Dermatol. Res. 303 591-600 (2011)).” for “(28).”, “below. […]” for “below.”

[7] = tested on: S100A9-induced inflammatory mediator expression in keratinocytes; experiment: qRT-PCR of inflammatory mediator mRNA in keratinocytes treated with recombinant S100A9 or LPS; format: cell-based, mouse
Procedure: as §1, §3

[8] = co-treatment with DOPG 100 μg/mL
[9] = recombinant S100A9 alone, keratinocytes, data not shown

With CCCCCCCC/C=C\CCCCCCCC(=O)OC[C@H](COP(=O)(O)OCC(O)CO)OC(=O)CCCCCCC/C=C\CCCCCCCC (some centres unmarked) [DOPG, dioleoylphosphatidylglycerol] the “Pam3CSK4-increased phosphorylation/activation of NF-κB” value ([1]; co-treatment with 100 μg/mL DOPG, 2.5 μg/mL Pam3CSK4) was “inhibited”, the “S100A9-induced increase in inflammatory mediator expression” value ([2]; 100 μg/mL DOPG with 2 μg/mL S100A9) was “inhibit” and the “S100A9-induced increase in TNFα protein secretion” value ([3]; 100 μg/mL DOPG with 2 μg/mL S100A9, FIG. 8A) was “inhibited”. For the same molecule, the “HSPB4-induced increase in TNFα protein secretion” value ([3]; 100 μg/mL DOPG with 0.1 or 1 μg/mL HSPB4, FIG. 8B) was “inhibited”, the “Pam3CSK4-induced IL1α expression” value ([4]; DOPG 50 μg/mL) was “inhibited” and the “Pam3CSK4-induced IL1β expression” value ([4]; DOPG 50 μg/mL) was “inhibited”. The “Pam3CSK4 induction of TNFα” value ([4]; DOPG 50 or 100 μg/mL) was “no effect”, the “Pam3CSK4-induced IL1α mRNA level” value [4, 8] was “inhibition” and the “Pam3CSK4-induced IL1β mRNA level” value [4, 8] was “inhibition”. The “Pam3CSK4-induced IL6 mRNA level” value [4, 8] was “inhibition”, the “Pam3CSK4-induced increase in the expression of all cytokines tested (IL1α, IL1β, IL6, TNFα mRNA)” value ([5]; DOPG at either 50 or 100 μg/mL, Pam3CSK4 1 or 2.5 μg/mL, 2-hour incubation, FIGS. 1A-1D) was “significantly inhibited” and the “HSPB4 induction of inflammatory mediator expression” value ([6]; 100 μg/mL DOPG with 0.1 or 1 μg/mL HSPB4) was “inhibited”.

In the case of C=C1/C(=C\C=C2/CCC[C@]3(C)[C@@H]([C@H](C)CCCC(C)(C)O)CC[C@@H]23)C[C@@H](O)C[C@@H]1O [1,25-dihydroxyvitamin D3], the “effect on ear edema” value (TPA-induced ear edema; agent alone in 95% ethanol/5% water, applied 1 and 4 h after 0.03% TPA, FIGS. 10A-10C) is reported as “neither 1,25-dihydroxyvitamin D3 nor soy PG alone had a significant effect”.

phosphatidylglycerol [PG] was tested, and the “S100A9-induced expression of IL-1β” value ([7]; 100 μg/mL DOPG with 3 μg/mL recombinant S100A9, 2 h, FIG. 5A) was “inhibited”, the “S100A9-induced expression of IL-6” value ([7]; 100 μg/mL DOPG with 3 μg/mL recombinant S100A9, 2 h, FIG. 5B) was “inhibited” and the “S100A9-induced expression of TNFα” value ([7]; 100 μg/mL DOPG with 3 μg/mL recombinant S100A9, 2 h, FIG. 5C) was “inhibited”.

With Pam3CSK4 [reference compound] the “phosphorylation/activation of NF-κB (pNFκB/NFκB ratio)” value ([1]; 2.5 μg/mL Pam3CSK4 alone) was “increased”, the “mRNA levels of IL1α, IL1β, IL6 and TNFα upon stimulation” value ([4]; Pam3CSK4 1 or 2.5 μg/mL alone, FIGS. 3A-3D) was “up-regulated” and the “inflammatory mediator expression in keratinocytes treated with TLR2 agonist” value ([5]; agonist alone, in vitro) was “increased”.

For CCCCCCCCCCCCCC(=O)O[C@@H]1[C@@H](C)[C@@]2(O)[C@@H](C=C(CO)C[C@]3(O)C(=O)C(C)=C[C@@H]23)[C@@H]2C(C)(C)[C@]12OC(C)=O [TPA, 12-O-tetra-decanoylphorbol 13-acetate], the “increase in ear thickness” value (TPA-induced ear edema; TPA alone, no subsequent treatment with vehicle, percent change from time 0) was 147±16% and the “increase in ear weight” value (TPA-induced ear edema; TPA alone, no subsequent treatment with vehicle, punch biopsy versus no-TPA mice) was 158±6%.

B1: HSPB4: recombinant small heat shock protein, a DAMP shown to mediate sterile corneal inflammation (protein, UniProt P02489 1-173, looked up)
Alpha-crystallin A chain: MDVTIQHPWFKRTLGPFYPSRLFDQFFGEGLFEYDLLPFLSSTISPYYRQSLFRTVLDSGISEVRSDRDKFVIFLDVKHFSPEDLTVKVQDDFVEIHGKHNERQDDHGYISREFHRRYRLPSNVDQSALSCSLSADGMLTFCGPKIQTGLDATHAERAIPVSREEKPTSAPSS
In the case of B1, the TNFα protein secretion [3] is reported as “induce” and the “inflammatory mediator expression (IL1α, IL1β, IL6, TNFα mRNA)” value ([6]; 0.1 or 1 μg/mL recombinant HSPB4 alone) is reported as “stimulate”.

B2: S100A9: recombinant anti-microbial protein, a DAMP that activates TLR2 (as well as TLR4) (protein, UniProt P06702 1-114, looked up)
Protein S100-A9: MTCKMSQLERNIETIINTFHQYSVKLGHPDTLNQGEFKELVRKDLQNFLKKENKNEKVIEHIMEDLDTNADKQLSFEEFIMLMARLTWASHEKMHEGDEGPGHHHKPGLGEGTP
In the case of B2, the IL-1α expression ([7]; S100A9 alone, keratinocytes) is reported as “only minimally stimulated”, the “expression of IL1β” value ([7]; recombinant S100A9 alone, 1 to 3 μg/mL, 2 h, FIG. 4B) is reported as “stimulated” and the “expression of IL6” value ([7]; recombinant S100A9 alone, 1 to 3 μg/mL, 2 h, FIG. 4C) is reported as “stimulated”. For the same molecule, the “expression of TNFα” value ([7]; recombinant S100A9 alone, 1 to 3 μg/mL, 2 h, FIG. 4D) was “stimulated”, the “expression of TLR1” value [7, 9] was “induced” and the “expression of TLR2” value [7, 9] was “induced”. The “inflammatory mediator expression (IL1α, IL1β, IL6, TNFα mRNA)” value ([2]; 2 μg/mL recombinant S100A9 alone) was “increases” and the TNFα protein secretion [3] was “induce”.

B3: denatured (heated) S100A9: heat-denatured recombinant S100A9 protein (protein, UniProt P06702 1-114, looked up)
Protein S100-A9: MTCKMSQLERNIETIINTFHQYSVKLGHPDTLNQGEFKELVRKDLQNFLKKENKNEKVIEHIMEDLDTNADKQLSFEEFIMLMARLTWASHEKMHEGDEGPGHHHKPGLGEGTP
modifications: heat-denatured
notes: heat-denatured recombinant S100A9 protein
In the case of B3, the “stimulating inflammatory mediator mRNA levels, relative to native S100A9” value ([7]; denatured (heated) protein, keratinocytes) is reported as “significantly less effective”.
